Common to all, as to conditions: assay mode: Radical Cure, 8-day (treatment from day 5 post-infection)
Assay [1] deals with primary human hepatocytes. Description: CC20 hepatic nuclei (20% reduction); higher = less toxic. The procedure:
(§1)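 Dose-response of P. vivax liver stages in primary human hepatocytes, with 8 points (10 uM-[…], v1) or 12 points in duplicate (50 uM-280 pM, v2). Read-out is high-content imaging of schizont net growth area, hypnozoite quantity and hepatic nuclei. EC50 and CC20 (20% nuclei loss) were fitted in CDD Vault from the highest-quality independent experiment; toxic-dose bell-shaped points were masked. '>' marks the highest concentration with less than 50% activity, and ND means a non-sigmoidal curve.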

For assay [2], the system named is Plasmodium vivax liver stage (primary human hepatocyte culture). Put plainly: maximum inhibition of schizont net growth area; higher = more active. On the procedure:
as §1

Assay [3] has the same test system. On the procedure:
as §1

[4] abbreviates: P. vivax isolate: Pv395, hepatocyte lot: UBV.
[5] abbreviates: P. vivax isolate: Pv657, hepatocyte lot: BGW.
Where [6] appears, read: P. vivax isolate: Pv728, hepatocyte lot: BGW.
[7] abbreviates: P. vivax isolate: Pv557, hepatocyte lot: UBV.
The mark [8] stands for this setting: P. vivax isolate: Pv668, hepatocyte lot: BGW.
Where [9] appears, read: P. vivax isolate: Pv590, hepatocyte lot: UBV.
Setting [10] is: P. vivax isolate: Pv458, hepatocyte lot: UBV.

Consider `c1ccc(-c2csc(Nc3nc4cc5c(cc4s3)OCO5)n2)nc1`, for which the CC20 hepatic nuclei in assay [1] (setting [4]) was > 10 µM. The maximum inhibition in assay [2] (setting [4]) is 72.6%. Further, in assay [3] (setting [4]), the EC50 hypnozoite quantity is > 10 µM and the “EC50 schizont net growth area” value is > 3.33 µM.
Regarding `CC(C)(C)n1nc(-c2ccccc2)c2c(N)ncnc21`, the CC20 hepatic nuclei in assay [1] (setting [5]) was > 50 µM. Further, in assay [2] (setting [5]), the maximum inhibition is 76.7%. In assay [3] (setting [5]), the EC50 hypnozoite quantity is > 50 µM and the “EC50 schizont net growth area” value was > 16.7 µM.
Take `CC1(CN2CCC(n3c(O)nc4ccccc43)CC2)OCc2ccccc2-n2cccc21` (centres undefined): in assay [1] (setting [6]), the CC20 hepatic nuclei is > 10 µM. Also, in assay [2] (setting [6]), the maximum inhibition came out at 99.2%. In assay [3] (setting [6]), the EC50 hypnozoite quantity is > 10 µM and the “EC50 schizont net growth area” value turned out to be 0.395 µM.
With `Cc1ccnc(Nc2nc(-c3ccccn3)cs2)c1`, in assay [1] (setting [7]), the CC20 hepatic nuclei was > 5.56 µM. Further, the maximum inhibition in assay [2] (setting [7]) was 84.1%. Besides, in assay [3] (setting [7]), the EC50 hypnozoite quantity was > 50 µM and the “EC50 schizont net growth area” value is 1.79 µM.
With `Cc1ccc(Nc2nc(-c3ccccn3)cs2)nc1`, the CC20 hepatic nuclei in assay [1] (setting [8]) was > 50 µM. For the same compound, the maximum inhibition in assay [2] (setting [8]) worked out at 90.9%. Besides, the EC50 hypnozoite quantity in assay [3] (setting [8]) came to 19.9 µM.
Regarding `CCN(CC)CCCNc1nc(-c2ccc(Cl)cc2)nc2ccccc12`, the CC20 hepatic nuclei in assay [1] (setting [9]) was 40.2 µM. Moreover, in assay [2] (setting [9]), the maximum inhibition came to 99.6%. Besides, in assay [3] (setting [9]), the EC50 hypnozoite quantity is > 50 µM and the “EC50 schizont net growth area” value is > 5.56 µM.
For `CCOc1ccc(CCC2CCN(C(C)c3nc(N)nc(N(C)C)n3)CC2)cc1` (centres undefined), the CC20 hepatic nuclei in assay [1] (setting [4]) was > 10 µM. The maximum inhibition in assay [2] (setting [4]) is 64.7%. Moreover, in assay [3] (setting [4]), the EC50 hypnozoite quantity was > 10 µM and the “EC50 schizont net growth area” value was > 3.33 µM.
`CCOc1ccc2nc(C)cc(Nc3ccc(N(C)C)cc3)c2c1` came in with a CC20 hepatic nuclei in assay [1] (setting [9]) of 16.2 µM. Moreover, in assay [2] (setting [9]), the maximum inhibition stood at 84.6%. In addition, in assay [3] (setting [9]), the EC50 hypnozoite quantity was > 50 µM and the “EC50 schizont net growth area” value was > 16.7 µM.
As for `CC[C@H](NC(=O)[C@H](C)NC)C(=O)N1C[C@@H](O)C[C@H]1Cc1c(-c2[nH]c3cc(F)ccc3c2C[C@@H]2C[C@H](O)CN2C(=O)[C@H](CC)NC(=O)[C@H](C)NC)[nH]c2cc(F)ccc12`, the CC20 hepatic nuclei in assay [1] (setting [8]) is > 5.56 µM. Also, the maximum inhibition in assay [2] (setting [8]) was determined as 73%. For the same compound, the EC50 hypnozoite quantity in assay [3] (setting [8]) was > 50 µM.
In the case of `CC[C@H]1CN2CCc3cc(OC)c(OC)cc3[C@@H]2C[C@@H]1C[C@H]1NCCc2cc(OC)c(OC)cc21`, the CC20 hepatic nuclei in assay [1] (setting [8]) turned out to be 2.42 µM. In assay [2] (setting [8]), the maximum inhibition was determined as 107%. Moreover, in assay [3] (setting [8]), the EC50 hypnozoite quantity was > 50 µM and the “EC50 schizont net growth area” value is 0.306 µM.
Regarding `CCn1ncc2c(NC3CCOCC3)c(CNC(=O)c3ccnn3C)c(C)nc21`, in assay [1] (setting [6]), the CC20 hepatic nuclei is > 50 µM. For the same compound, in assay [2] (setting [6]), the maximum inhibition is 103%. Further, in assay [3] (setting [6]), the EC50 hypnozoite quantity is > 50 µM and the “EC50 schizont net growth area” value turned out to be 0.0266 µM.
`CN(C(=O)c1cc2c(-c3cncnc3)cccc2[nH]1)c1ccccc1`: the CC20 hepatic nuclei in assay [1] (setting [5]) was > 50 µM. Also, the maximum inhibition in assay [2] (setting [5]) was determined as 84.7%. In assay [3] (setting [5]), the EC50 hypnozoite quantity was > 50 µM and the “EC50 schizont net growth area” value was determined as 3.11 µM.
`CN(C)CCCNc1c2ccccc2nc2ccccc12`: the CC20 hepatic nuclei in assay [1] (setting [8]) is 5.73 µM. Further, the maximum inhibition in assay [2] (setting [8]) was found to be 108%. Also, in assay [3] (setting [8]), the EC50 hypnozoite quantity is > 50 µM and the “EC50 schizont net growth area” value was determined as 9.24 µM.
For `CN1CCN(C(c2cccs2)c2ccc3cccnc3c2O)CC1` (centres undefined), the CC20 hepatic nuclei in assay [1] (setting [10]) was > 10 µM. Besides, the maximum inhibition in assay [2] (setting [10]) is 60.5%. In addition, the EC50 hypnozoite quantity in assay [3] (setting [10]) is > 10 µM.
In the case of `CN1CCN(c2ccc(Nc3c4ccccc4nc4ccccc34)cc2)CC1`, the CC20 hepatic nuclei in assay [1] (setting [8]) was 5.55 µM. Also, the maximum inhibition in assay [2] (setting [8]) came to 111%. In addition, in assay [3] (setting [8]), the EC50 hypnozoite quantity was > 50 µM and the “EC50 schizont net growth area” value was 6.04 µM.
For `CNC(=S)N/N=C(\C)c1ccccn1`, in that order: > 50 µM, 100%, 1.92 µM and 4.44 µM.
As to `COc1cc(-c2cc(-c3ccc(S(C)(=O)=O)cc3)cnc2N)ccc1O`, the CC20 hepatic nuclei in assay [1] (setting [5]) was > 50 µM. Also, the maximum inhibition in assay [2] (setting [5]) stood at 80.2%. For the same compound, in assay [3] (setting [5]), the EC50 hypnozoite quantity is > 50 µM and the “EC50 schizont net growth area” value is > 16.7 µM.
`COc1ccc(-c2cncc3ccc(C(=O)NCCCn4ccnc4)nc23)cc1` returned a CC20 hepatic nuclei in assay [1] (setting [5]) of 44.8 µM. Also, the maximum inhibition in assay [2] (setting [5]) came to 70.8%. Also, in assay [3] (setting [5]), the EC50 hypnozoite quantity is > 50 µM and the “EC50 schizont net growth area” value is 26 µM.

Values taken from the supplement of paper PMC8497498.
